Experimental data as given in patent publication US4607012A, “Antibiotic SB 22484” (Gruppo Lepetit S.p.A., priority 1983, dated 1986).

Tests used:
N. gonorrhoeae L 1599 = assay: in vitro antibacterial activity (standard dilution test); type: cell-based; conditions: Neisseria gonorrhoeae, L1599; N. gonorrhoeae L 1599, clinically isolated, penicillinase producing; GC agar base + 1% Iso-Vitalex, CO2 enriched, 18-24 h, 37° C
Method: (§1) Iso-Sensitest broth (Oxoid) and Todd-Hewitt broth (Difco) are used for staphylococci and streptococci, respectively, Neisseriae strains are cultured on GC agar base (Difco)+1% Iso-Vitalex (BBL) and Hemophylus is cultured on GC agar base (Difco)+1% Iso-Vitalex (BBL)+1% hemoglobin (Difco). Broth cultures are diluted so that the final inoculum is about 10^4 -10^5 colony forming units/ml (CFU/ml). […] Neisseriae strains are incubated in a CO2 enriched atmosphere.

N. gonorrhoeae L 1596 = assay: as above; type: cell-based; conditions: Neisseria gonorrhoeae, L1596; N. gonorrhoeae L 1596, clinically isolated, resistant to spectinomycin; GC agar base + 1% Iso-Vitalex, CO2 enriched, 18-24 h, 37° C
Method: as §1

MIC (N. gonorrhoeae L 1596) [µg/mL]	Compound	MIC (N. gonorrhoeae L 1599) [µg/mL]
–	CC1(C)S[C@@H]2[C@H](NC(=O)Cc3ccccc3)C(=O)N2[C@H]1C(=O)O [penicillin]	> 50
> 12	CN[C@@H]1[C@H](O)[C@H](NC)[C@H]2O[C@@]3(O)C(=O)C[C@@H](C)O[C@H]3O[C@@H]2[C@H]1O [spectinomycin]	–
